Source: patent US20160220542A1, “SYNERGISTIC ACTIVITY OF MODULATORS OF THE NO METABOLISM AND OF NADPH OXIDASE IN THE SENSITISATION OF TUMOR CELLS” (Universitaetsklinikum Freiburg, priority 2010, published 2016)

Molecular target: T1, NADPH oxidase (Rattus norvegicus, UniProt Q9WV87)
T1 construct: 12 500 208Fsrc3 cells (100 μl) received the stated concentrations of Cu SOD and 120 μM EUK-8; endogenous in cells; host or cells: 208Fsrc3 transformed rat fibroblasts
T1 sequence (Q9WV87 1-563): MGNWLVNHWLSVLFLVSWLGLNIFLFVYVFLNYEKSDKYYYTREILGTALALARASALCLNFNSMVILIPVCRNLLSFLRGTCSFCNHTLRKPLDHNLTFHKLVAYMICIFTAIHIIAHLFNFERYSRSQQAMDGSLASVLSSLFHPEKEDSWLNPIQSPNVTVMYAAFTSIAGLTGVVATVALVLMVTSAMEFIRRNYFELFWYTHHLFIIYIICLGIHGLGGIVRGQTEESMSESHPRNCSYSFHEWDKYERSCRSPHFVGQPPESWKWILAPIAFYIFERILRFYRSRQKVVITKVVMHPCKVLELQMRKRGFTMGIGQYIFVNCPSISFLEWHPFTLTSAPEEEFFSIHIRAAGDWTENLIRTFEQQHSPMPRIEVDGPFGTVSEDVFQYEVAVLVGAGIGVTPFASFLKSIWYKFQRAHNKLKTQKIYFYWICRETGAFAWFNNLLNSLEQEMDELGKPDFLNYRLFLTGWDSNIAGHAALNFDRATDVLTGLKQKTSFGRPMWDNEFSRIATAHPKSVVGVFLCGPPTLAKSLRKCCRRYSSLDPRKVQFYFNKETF
T1 sequence (Q62737 1-192 partner): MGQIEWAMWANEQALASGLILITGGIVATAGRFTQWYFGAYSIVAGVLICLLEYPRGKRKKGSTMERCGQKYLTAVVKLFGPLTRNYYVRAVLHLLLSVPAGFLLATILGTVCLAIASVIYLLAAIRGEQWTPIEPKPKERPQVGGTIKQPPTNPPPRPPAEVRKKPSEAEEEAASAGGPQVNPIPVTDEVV
Assay: superoxide anion concentration after inhibition of NADPH oxidase (Cu SOD bell curve shift)
Format: cell-based
Conditions: 208Fsrc3, 120 μM EUK-8, 5 hours
Method: 12 500 208Fsrc3 cells (100 μl) received the stated concentrations of Cu SOD and 120 μM EUK-8. In addition the stated concentrations of the NADPH oxidase inhibitor AEBSF (4-(2-Aminoethyl)-benzenesulfonyl fluoride) were added. Control preparations remained free of AEBSF. After 5 hours the percentages of apoptotic cells were determined in duplicate preparations.

NCCc1ccc(S(=O)(=O)F)cc1 [AEBSF, 4-(2-Aminoethyl)-benzenesulfonyl fluoride]
reduction in superoxide anion concentration on doubling of the inhibitor concentration: fourfold
